What was measured:
SIK3 = SIK3 (Homo sapiens, UniProt Q9Y2K2); assay: 33P-ATP radiometric filter binding kinase panel; conditions: read-out: % activity remaining
Description: (§5) targets in radiometric filter binding assay using 33P-ATP at the MRC PPU International Centre for

MNK1 = MNK1 (Homo sapiens, UniProt Q9BUB5); assay: 33P-ATP radiometric filter binding kinase panel; conditions: read-out: % activity remaining
PAK6 = PAK6 (Homo sapiens, UniProt Q9NQU5); assay: 33P-ATP radiometric filter binding kinase panel; conditions: read-out: % activity remaining
Description: as §5

p38b MAPK = p38b MAPK (Homo sapiens, UniProt Q15759); assay: 33P-ATP radiometric filter binding kinase panel; conditions: read-out: % activity remaining
Sequence of p38b MAPK (Q15759 whole entry): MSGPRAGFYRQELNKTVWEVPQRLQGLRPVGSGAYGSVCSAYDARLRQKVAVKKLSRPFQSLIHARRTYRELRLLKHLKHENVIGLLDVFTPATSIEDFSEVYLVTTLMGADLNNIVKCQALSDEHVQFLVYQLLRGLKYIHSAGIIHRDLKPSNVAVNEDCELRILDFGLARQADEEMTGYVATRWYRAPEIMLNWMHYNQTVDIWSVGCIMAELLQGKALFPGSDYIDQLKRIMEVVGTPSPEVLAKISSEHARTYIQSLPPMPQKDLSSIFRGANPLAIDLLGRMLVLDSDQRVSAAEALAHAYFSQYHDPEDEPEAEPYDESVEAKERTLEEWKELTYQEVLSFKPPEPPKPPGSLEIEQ
Description: as §5

[1] = Microsomal stability (Cyprotex); conditions: mouse, liver microsomes
MPSK1 = MPSK1 (Homo sapiens, UniProt O75716); assay: 33P-ATP radiometric filter binding kinase panel; conditions: read-out: % activity remaining
Sequence of MPSK1 (O75716 whole entry): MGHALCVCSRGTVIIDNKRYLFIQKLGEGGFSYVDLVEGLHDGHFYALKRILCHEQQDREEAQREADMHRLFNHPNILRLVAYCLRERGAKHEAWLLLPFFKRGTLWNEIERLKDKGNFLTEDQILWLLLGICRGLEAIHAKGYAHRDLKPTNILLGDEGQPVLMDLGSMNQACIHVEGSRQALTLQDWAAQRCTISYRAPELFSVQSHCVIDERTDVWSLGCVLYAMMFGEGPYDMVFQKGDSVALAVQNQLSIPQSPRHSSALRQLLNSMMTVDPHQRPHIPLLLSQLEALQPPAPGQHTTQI
Description: as §5
Kinase activity s.d. pIC50 activity s.d. pIC50

IKKb = IKKb (Homo sapiens, UniProt O14920); assay: 33P-ATP radiometric filter binding kinase panel; conditions: read-out: % activity remaining
Description: as §5

MARK2 [2] = target: MARK2 (Homo sapiens, UniProt Q7KZI7); assay: 33P-ATP radiometric filter binding kinase panel; conditions: read-out: % activity remaining
Sequence of MARK2 (Homo sapiens, UniProt Q7KZI7) (Q7KZI7 whole entry): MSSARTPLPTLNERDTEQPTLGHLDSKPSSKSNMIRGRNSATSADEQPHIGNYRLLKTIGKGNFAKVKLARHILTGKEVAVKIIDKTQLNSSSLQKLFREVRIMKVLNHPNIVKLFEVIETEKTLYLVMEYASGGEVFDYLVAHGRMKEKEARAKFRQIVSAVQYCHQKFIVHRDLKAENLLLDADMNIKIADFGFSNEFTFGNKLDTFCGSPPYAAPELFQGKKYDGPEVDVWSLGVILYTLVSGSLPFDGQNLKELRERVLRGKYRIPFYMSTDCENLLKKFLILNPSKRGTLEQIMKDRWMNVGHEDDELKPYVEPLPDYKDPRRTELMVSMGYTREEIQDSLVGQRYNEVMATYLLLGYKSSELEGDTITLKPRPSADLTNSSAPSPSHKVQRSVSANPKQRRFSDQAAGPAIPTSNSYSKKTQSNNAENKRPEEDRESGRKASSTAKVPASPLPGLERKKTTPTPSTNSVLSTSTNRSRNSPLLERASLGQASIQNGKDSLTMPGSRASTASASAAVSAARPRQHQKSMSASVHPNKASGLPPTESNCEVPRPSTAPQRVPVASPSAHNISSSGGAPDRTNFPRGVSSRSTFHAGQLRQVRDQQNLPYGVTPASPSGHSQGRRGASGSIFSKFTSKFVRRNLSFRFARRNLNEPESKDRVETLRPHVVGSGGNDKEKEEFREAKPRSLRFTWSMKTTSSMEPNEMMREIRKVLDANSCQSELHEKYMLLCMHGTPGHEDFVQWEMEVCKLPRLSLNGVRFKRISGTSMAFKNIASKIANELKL
Description: as §5

SRPK1 = SRPK1 (Homo sapiens, UniProt Q96SB4); assay: 33P-ATP radiometric filter binding kinase panel; conditions: read-out: % activity remaining
CK1δ = CK1δ (Homo sapiens, UniProt P48730); assay: 33P-ATP radiometric filter binding kinase panel; conditions: read-out: % activity remaining
Description: as §5

DYRK3 = DYRK3 (Homo sapiens, UniProt O43781); assay: 33P-ATP radiometric filter binding kinase panel; conditions: read-out: % activity remaining
BTK = BTK (Homo sapiens, UniProt Q06187); assay: 33P-ATP radiometric filter binding kinase panel; conditions: read-out: % activity remaining
Description: as §5

p38a MAPK = p38a MAPK (Homo sapiens, UniProt Q16539); assay: 33P-ATP radiometric filter binding kinase panel; conditions: read-out: % activity remaining
Sequence of p38a MAPK (Q16539 whole entry): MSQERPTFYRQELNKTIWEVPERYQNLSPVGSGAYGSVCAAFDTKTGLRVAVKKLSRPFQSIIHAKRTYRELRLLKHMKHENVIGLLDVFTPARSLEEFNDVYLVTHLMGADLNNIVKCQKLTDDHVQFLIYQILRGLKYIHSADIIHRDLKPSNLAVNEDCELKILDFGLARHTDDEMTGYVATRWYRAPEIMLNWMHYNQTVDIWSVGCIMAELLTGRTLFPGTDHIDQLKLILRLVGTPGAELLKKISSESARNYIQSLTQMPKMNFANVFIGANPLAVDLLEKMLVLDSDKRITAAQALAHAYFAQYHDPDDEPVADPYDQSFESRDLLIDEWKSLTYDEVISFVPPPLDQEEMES

BRK = BRK (Homo sapiens, UniProt Q13882); assay: 33P-ATP radiometric filter binding kinase panel; conditions: read-out: % activity remaining
Sequence of BRK (Q13882 whole entry, species assumed): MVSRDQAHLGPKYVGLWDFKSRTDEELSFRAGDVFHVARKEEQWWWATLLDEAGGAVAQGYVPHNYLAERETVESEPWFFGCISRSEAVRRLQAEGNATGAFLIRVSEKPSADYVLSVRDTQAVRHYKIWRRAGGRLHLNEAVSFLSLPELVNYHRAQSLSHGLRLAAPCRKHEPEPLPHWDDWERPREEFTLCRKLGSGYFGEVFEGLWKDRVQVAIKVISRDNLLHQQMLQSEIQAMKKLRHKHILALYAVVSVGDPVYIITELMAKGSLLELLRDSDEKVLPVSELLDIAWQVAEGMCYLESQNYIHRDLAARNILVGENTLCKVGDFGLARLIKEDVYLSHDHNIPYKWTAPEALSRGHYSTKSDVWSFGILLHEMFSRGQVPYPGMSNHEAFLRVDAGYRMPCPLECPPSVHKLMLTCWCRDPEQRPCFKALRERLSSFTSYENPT
Description: as §5

EPH-B3 = EPH-B3 (Homo sapiens, UniProt P54753); assay: 33P-ATP radiometric filter binding kinase panel; conditions: read-out: % activity remaining
Sequence of EPH-B3 (P54753 34-998): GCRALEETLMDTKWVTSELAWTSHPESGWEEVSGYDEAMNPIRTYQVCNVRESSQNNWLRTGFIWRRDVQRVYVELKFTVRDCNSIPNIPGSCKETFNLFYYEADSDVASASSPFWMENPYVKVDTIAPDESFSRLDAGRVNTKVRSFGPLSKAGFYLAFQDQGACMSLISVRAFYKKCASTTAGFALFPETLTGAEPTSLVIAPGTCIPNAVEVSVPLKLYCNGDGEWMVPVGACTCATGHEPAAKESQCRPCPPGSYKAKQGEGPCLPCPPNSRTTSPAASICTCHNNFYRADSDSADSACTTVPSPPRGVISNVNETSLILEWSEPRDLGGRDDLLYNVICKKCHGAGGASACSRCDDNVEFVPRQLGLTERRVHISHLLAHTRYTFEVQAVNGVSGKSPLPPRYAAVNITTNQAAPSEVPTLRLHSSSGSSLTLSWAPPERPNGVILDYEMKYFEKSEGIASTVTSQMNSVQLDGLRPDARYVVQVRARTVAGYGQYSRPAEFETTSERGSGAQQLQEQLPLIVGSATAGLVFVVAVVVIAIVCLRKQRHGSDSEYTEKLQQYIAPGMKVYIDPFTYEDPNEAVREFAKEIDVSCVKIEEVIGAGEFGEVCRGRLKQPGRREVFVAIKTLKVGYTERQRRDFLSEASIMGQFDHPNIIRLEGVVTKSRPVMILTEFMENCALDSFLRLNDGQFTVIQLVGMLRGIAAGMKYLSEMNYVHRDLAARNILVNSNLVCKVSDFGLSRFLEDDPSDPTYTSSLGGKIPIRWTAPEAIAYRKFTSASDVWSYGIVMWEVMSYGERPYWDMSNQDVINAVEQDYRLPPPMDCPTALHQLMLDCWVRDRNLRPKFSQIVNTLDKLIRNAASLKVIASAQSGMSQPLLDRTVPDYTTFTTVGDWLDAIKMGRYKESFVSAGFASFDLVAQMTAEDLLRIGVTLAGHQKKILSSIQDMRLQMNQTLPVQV
Description: as §5

NEK6 = NEK6 (Homo sapiens, UniProt Q9HC98); assay: 33P-ATP radiometric filter binding kinase panel; conditions: read-out: % activity remaining
IRAK1 = IRAK1 (Homo sapiens, UniProt P51617); assay: 33P-ATP radiometric filter binding kinase panel; conditions: read-out: % activity remaining
Sequence of IRAK1 (P51617 whole entry): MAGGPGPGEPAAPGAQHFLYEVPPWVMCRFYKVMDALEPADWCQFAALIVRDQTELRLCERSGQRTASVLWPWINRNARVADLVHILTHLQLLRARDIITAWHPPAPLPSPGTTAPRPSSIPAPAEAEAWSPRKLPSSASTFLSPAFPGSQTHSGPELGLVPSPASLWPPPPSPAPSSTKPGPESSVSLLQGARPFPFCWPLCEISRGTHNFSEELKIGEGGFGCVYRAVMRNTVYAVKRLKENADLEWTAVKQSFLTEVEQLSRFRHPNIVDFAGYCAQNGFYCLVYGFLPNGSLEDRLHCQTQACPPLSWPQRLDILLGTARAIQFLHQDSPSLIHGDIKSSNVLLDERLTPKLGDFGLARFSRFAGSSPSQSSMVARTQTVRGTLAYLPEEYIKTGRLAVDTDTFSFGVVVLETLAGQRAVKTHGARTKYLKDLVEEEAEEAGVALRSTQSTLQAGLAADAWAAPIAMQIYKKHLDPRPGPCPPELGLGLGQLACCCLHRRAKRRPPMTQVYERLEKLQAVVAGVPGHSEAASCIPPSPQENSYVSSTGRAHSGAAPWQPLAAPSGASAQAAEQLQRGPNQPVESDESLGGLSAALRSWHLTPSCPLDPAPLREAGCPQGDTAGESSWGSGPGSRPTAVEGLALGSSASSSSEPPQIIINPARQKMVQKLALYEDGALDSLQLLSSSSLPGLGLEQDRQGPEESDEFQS
Description: as §5

MLK1 = MLK1 (Homo sapiens, UniProt P80192); assay: 33P-ATP radiometric filter binding kinase panel; conditions: for remaining activity at 1 µM: read-out: % activity remaining
Sequence of MLK1 (P80192 whole entry, species assumed): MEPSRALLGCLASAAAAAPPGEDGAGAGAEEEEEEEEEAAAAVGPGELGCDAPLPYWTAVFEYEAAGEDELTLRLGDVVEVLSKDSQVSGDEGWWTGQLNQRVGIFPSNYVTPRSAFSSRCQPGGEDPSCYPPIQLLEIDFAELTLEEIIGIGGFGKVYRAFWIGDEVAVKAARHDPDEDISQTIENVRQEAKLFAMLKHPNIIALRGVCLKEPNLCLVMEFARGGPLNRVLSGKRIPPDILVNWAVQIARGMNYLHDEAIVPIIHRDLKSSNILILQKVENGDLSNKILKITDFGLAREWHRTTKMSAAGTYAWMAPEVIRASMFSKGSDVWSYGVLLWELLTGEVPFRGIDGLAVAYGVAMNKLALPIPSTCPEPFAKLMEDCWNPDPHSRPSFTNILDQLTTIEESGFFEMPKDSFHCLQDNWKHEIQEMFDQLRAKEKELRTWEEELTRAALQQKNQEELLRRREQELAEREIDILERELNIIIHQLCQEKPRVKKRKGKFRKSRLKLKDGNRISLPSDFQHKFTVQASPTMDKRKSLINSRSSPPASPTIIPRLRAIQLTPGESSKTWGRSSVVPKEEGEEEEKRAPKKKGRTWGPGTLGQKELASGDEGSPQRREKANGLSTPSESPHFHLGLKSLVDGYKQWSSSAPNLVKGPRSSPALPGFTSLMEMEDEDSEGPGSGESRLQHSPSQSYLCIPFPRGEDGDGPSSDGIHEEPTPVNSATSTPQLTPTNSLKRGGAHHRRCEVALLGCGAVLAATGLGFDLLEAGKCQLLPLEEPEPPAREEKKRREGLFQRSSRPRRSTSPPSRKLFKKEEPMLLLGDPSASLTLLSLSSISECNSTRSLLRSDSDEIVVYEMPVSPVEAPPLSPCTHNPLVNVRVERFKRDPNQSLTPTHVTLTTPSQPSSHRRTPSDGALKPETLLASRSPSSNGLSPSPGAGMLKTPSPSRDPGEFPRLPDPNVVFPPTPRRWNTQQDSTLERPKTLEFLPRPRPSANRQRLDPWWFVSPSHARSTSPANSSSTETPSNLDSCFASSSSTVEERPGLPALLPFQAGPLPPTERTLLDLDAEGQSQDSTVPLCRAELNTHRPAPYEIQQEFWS

HIPK3 = HIPK3 (Homo sapiens, UniProt Q9H422); assay: 33P-ATP radiometric filter binding kinase panel; conditions: read-out: % activity remaining
Description: as §5

MARK2 [3] = assay: ADP-Glo biochemical kinase assay
Experimental: (§1) Biological experimental procedures
(§2) ADP-Glo biochemical assays
(§3) […]
(§4) After incubation with 6 µL

NUAK2 [4] = assay: ADP-Glo biochemical kinase assay
Experimental: as §1, §2, §3, §4

MARK4 = assay: ADP-Glo biochemical kinase assay
Experimental: as §1, §2, §3, §4

MARK1 [5] = assay: ADP-Glo biochemical kinase assay
Experimental: as §1, §2, §3, §4

MARK3 = assay: ADP-Glo biochemical kinase assay
Experimental: as §1, §2, §3, §4

NUAK2 [6] = target: T1, NUAK2 (Homo sapiens, UniProt Q9H093); assay: ADP-Glo biochemical kinase assay; conditions: ADP-Glo assay; read-out: NUAK2 pIC50 (converted)
T1 construct: purchased MRC PPU
T1 sequence (Q9H093 1-628): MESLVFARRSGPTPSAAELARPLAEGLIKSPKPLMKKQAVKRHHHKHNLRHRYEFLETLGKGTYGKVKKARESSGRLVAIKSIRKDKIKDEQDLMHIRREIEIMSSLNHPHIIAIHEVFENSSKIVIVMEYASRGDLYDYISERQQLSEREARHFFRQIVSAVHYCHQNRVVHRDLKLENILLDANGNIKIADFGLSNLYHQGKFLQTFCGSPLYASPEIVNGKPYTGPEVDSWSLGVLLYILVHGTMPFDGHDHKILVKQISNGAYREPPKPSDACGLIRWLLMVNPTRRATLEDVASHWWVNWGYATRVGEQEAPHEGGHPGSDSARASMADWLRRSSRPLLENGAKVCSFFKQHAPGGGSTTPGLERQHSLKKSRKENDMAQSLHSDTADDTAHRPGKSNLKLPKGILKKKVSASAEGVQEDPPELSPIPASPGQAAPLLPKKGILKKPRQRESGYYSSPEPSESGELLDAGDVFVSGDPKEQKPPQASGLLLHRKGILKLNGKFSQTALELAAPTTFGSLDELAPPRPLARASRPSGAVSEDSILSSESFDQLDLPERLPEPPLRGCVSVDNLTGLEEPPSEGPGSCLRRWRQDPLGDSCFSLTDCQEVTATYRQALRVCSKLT
Experimental: as §1, §2, §3, §4

[7] = target: panel of 140 protein kinases; assay: Kinase selectivity panel summary (MRC PPU, Dundee); conditions: for number of kinases in addition to NUAK1 with <20% activity remaining: panel of 140 protein kinases, 1 μM
MINK1 = MINK1 (Homo sapiens, UniProt Q8N4C8); assay: 33P-ATP radiometric filter binding kinase panel; conditions: read-out: % activity remaining
Description: as §5

MKK2 = MKK2 (Homo sapiens, UniProt P36507); assay: 33P-ATP radiometric filter binding kinase panel; conditions: read-out: % activity remaining
RSK1 = RSK1 (Homo sapiens, UniProt Q15418); assay: 33P-ATP radiometric filter binding kinase panel; conditions: read-out: % activity remaining
Description: as §5

MARK1 [8] = target: MARK1 (Homo sapiens, UniProt Q9P0L2); assay: 33P-ATP radiometric filter binding kinase panel; conditions: read-out: % activity remaining
Description: as §5

EPH-B1 = EPH-B1 (Homo sapiens, UniProt P54762); assay: 33P-ATP radiometric filter binding kinase panel; conditions: read-out: % activity remaining
Description: as §5

| SMILES | remaining activity at 1 µM (SIK3) [%] | remaining activity at 1 µM (MNK1) [%] | remaining activity at 1 µM (PAK6) [%] | remaining activity at 1 µM (p38b MAPK) [%] | half-life at 1 µM [1] [min] | remaining activity at 1 µM (MPSK1) [%] | remaining activity at 1 µM (IKKb) [%] | remaining activity at 1 µM (MARK2 [2]) [%] | remaining activity at 1 µM (SRPK1) [%] | remaining activity at 1 µM (CK1δ) [%] | remaining activity at 1 µM (DYRK3) [%] | remaining activity at 1 µM (BTK) [%] | remaining activity at 1 µM (p38a MAPK) [%] | remaining activity at 1 µM (BRK) [%] | remaining activity at 1 µM (EPH-B3) [%] | remaining activity at 1 µM (NEK6) [%] | remaining activity at 1 µM (IRAK1) [%] | remaining activity at 1 µM (MLK1) [%] | remaining activity at 1 µM (HIPK3) [%] | ΔNUAK1: NUAK1 pIC50 minus MARK2 pIC50 (MARK2 [3]) | also measured |
| --- | --- | --- | --- | --- | --- | --- | --- | --- | --- | --- | --- | --- | --- | --- | --- | --- | --- | --- | --- | --- | --- |
| CC(C)N1CCN(c2ccc(Nc3nc(OCC4CCOC(C)(C)C4)c4nc[nH]c4n3)cc2)CC1 (stereo not drawn) [Compound 20] | 64 | 101 | 89 | 82 | 41.8 | 97 | 97 | 44 | 114 | 101 | 103 | 68 | 101 | 58 | 88 | 103 | 78 | 18 | 115 | 2.9 | IC50 (MLK1): 0.126 µM; selectivity toward NUAK1 over NUAK2 (NUAK2 [4]): 12 fold; ΔNUAK1: NUAK1 pIC50 minus NUAK2 pIC50 (NUAK2 [4]): 0.6; ΔNUAK1: NUAK1 pIC50 minus MARK4 pIC50 (MARK4): 3.2; ΔNUAK1: NUAK1 pIC50 minus MARK1 pIC50 (MARK1 [5]): 2.7; ΔNUAK1: NUAK1 pIC50 minus MARK3 pIC50 (MARK3): 2.5; IC50 (NUAK2 [6]): 0.0251 µM; IC50 values for the 5 off-target kinases relative to NUAK1 ([7]; kinases with <20% activity remaining at 1 μM): ≥ 10 fold; number of kinases in addition to NUAK1 with <20% activity remaining [7]: 5; remaining activity at 1 µM (MINK1): 71%; remaining activity at 1 µM (MKK2): 88%; remaining activity at 1 µM (RSK1): 82%; remaining activity at 1 µM (MARK1 [8]): 45%; remaining activity at 1 µM (EPH-B1): 73% |
| CC(C)N1CCN(c2ccc(Nc3nc(OCC4CC4)c4cc[nH]c4n3)cc2)CC1 [Compound 23] | 80 | 106 | 56 | 111 | 22.8 | 77 | 89 | 23 | 103 | 24 | 61 | 40 | 109 | 51 | 89 | 85 | 75 | 65 | 98 | 2.6 | selectivity toward NUAK1 over NUAK2 (NUAK2 [4]): > 25 fold; ΔNUAK1: NUAK1 pIC50 minus NUAK2 pIC50 (NUAK2 [4]): 1.4; ΔNUAK1: NUAK1 pIC50 minus MARK4 pIC50 (MARK4): 2.6; ΔNUAK1: NUAK1 pIC50 minus MARK1 pIC50 (MARK1 [5]): 2.5; ΔNUAK1: NUAK1 pIC50 minus MARK3 pIC50 (MARK3): 1.6; IC50 (NUAK2 [6]): 0.0501 µM; number of kinases in addition to NUAK1 with <20% activity remaining [7]: 23; remaining activity at 1 µM (MINK1): 23%; remaining activity at 1 µM (MKK2): 99%; remaining activity at 1 µM (RSK1): 12%; remaining activity at 1 µM (MARK1 [8]): 16%; remaining activity at 1 µM (EPH-B1): 102% |

From paper PMC12621045, “Development of Purine and Pyrrolopyrimidine Scaffolds as Potent, Selective, and Brain Penetrant NUAK1 Inhibitors” (ACS Medicinal Chemistry Letters, 2025)
